Measured values reported in PMC6216040, “Repurposing of an old drug: In vitro and in vivo efficacies of buparvaquone against Echinococcus multilocularis” (International Journal for Parasitology: Drugs and Drug …, 2018).
Read-outs that look alike come from different tables or passages of the source.

Tested on: E. multilocularis metacestodes
Assay: PGI-assay: drug-induced damage on in vitro cultured metacestodes (Pathogen Box screening cascade and EC50)
Assay type: cell-based, Echinococcus multilocularis
Details: for PGI release, % of the Tx-100 control, 5d / PGI release, % of the Tx-100 control, 12d / cytotoxicity at 10 µM: 10 µM, singlets; for cytotoxicity at 10 µM: Echinococcus multilocularis; for activity in the screen at 10 μM (confirmed in triplicates, >20% relative PGI release): 5 and 12 days
[1] = confirmatory screening at 10 µM in triplicates, 5 days of incubation, values as % of Tx-100 control
[2] = confirmatory screening at 10 µM in triplicates, 12 days of incubation, values as % of Tx-100 control
[3] = 120 h, 5 days of incubation, read-out: PGI release, % of the Tx-100 control, 5d
[4] = 288 h, 12 days of incubation, read-out: PGI release, % of the Tx-100 control, 12d
[5] = 1 µM, triplicates, 5 days of incubation
[6] = 1 µM, triplicates, 12 days of incubation

| Structure (SMILES) | PGI release, % of the Tx-100 control, 5d (5 days of incubation) [%] | PGI release, % of the Tx-100 control, 12d (12 days of incubation) [%] | other results |
| --- | --- | --- | --- |
| C[C@H](c1ccc2c(c1)CCCC2)N(C)c1ncc2c(N)nc(N)nc2n1 [MMV690103] | -3.58 | 41.60 | PGI release, % of Tx-100 control, average, 5d [1]: -0.48%; PGI release, % of Tx-100 control, average, 12d [2]: 4.22% |
| N=C(N)Nc1ccc(-c2ccc(-c3ccc(N=C(N)N)c(Cl)c3)o2)cc1Cl [MMV688271] | 9.82 | 13.94 |  |
| COc1cc2ncnc(NC3CCN(Cc4ccccc4)CC3)c2cc1OC [MMV006741] | -1.05 | 0.30 |  |
| Cc1nc(-c2ccccn2)nc(NCCc2ccc(S(C)(=O)=O)cc2)c1Cl [MMV658993] | -0.19 | 1.18 |  |
| Cc1nn(C)c(C)c1NS(=O)(=O)c1c(Cl)cc(-c2ccnc(N3CCNCC3)c2)cc1Cl [MMV688180] | -0.14 | 0.11 |  |
| Cc1ccc2nc(Cl)c(CNCc3cccs3)cc2c1 [MMV676439] | -0.82 | 3.19 |  |
| CC(=O)NC[C@H]1CN(c2ccc(N3CCSCC3)c(F)c2)C(=O)O1 [MMV688756, Sutezolid, reference compound] |  |  | cytotoxicity at 10 µM [3]: -3.45%; cytotoxicity at 10 µM [4]: -0.37% |
| COCC(C)NC(=O)CSc1ncnc2sc(-c3ccccc3)cc12 (centres unmarked) [MMV676536] | 3.74 | 50.91 | PGI release, % of Tx-100 control, average, 5d [1]: 0.53%; PGI release, % of Tx-100 control, average, 12d [2]: 0.42% |
| CC(=O)N(CCN(C(=O)c1ccc(F)cc1)c1ccccc1)c1ccccc1 [MMV676064] | -0.20 | 0.0545 |  |
| Clc1ccc(-n2cc(COc3ccnc4ccccc34)nn2)cc1 [MMV675994] | -6.67 | 46.84 | PGI release, % of Tx-100 control, average, 5d [5]: -4.24%; PGI release, % of Tx-100 control, average, 12d [6]: -12.79%; activity in the screen at 10 μM (confirmed in triplicates, >20% relative PGI release): active; PGI release, % of Tx-100 control, average, 5d [1]: 26.02%; PGI release, % of Tx-100 control, average, 12d [2]: 73.87% |
| COc1cc(NC(C)CCCN)c2ncccc2c1 (centres unmarked) [MMV000023, Primaquine, reference compound] |  |  | cytotoxicity at 10 µM [3]: -0.23%; cytotoxicity at 10 µM [4]: 17.6% |
| O=C(NCc1cc(Cl)cc(Cl)c1)c1c(C(F)(F)F)nc2ccccn12 [MMV687699] | 0.90 | 18.76 |  |
| CCOc1ccc2cc(-c3nn(C(C)(C)C)c(N)c3C(N)=O)cnc2c1 [MMV688853] | -1.41 | -6.45 |  |
| COc1cccc(-c2cc3c(Nc4cccnc4)nccc3[nH]2)c1 [MMV392832] | 0.24 | -1.65 |  |
| Nc1nc2cc(-c3cncc(Oc4ccc(F)cc4)c3)ccc2[nH]1 [MMV687248] | 2.44 | 3.04 |  |
| Nc1nccc2ccc(Oc3ccncc3)cc12 [MMV026313] | -0.49 | -0.99 |  |
| c1ccc(Oc2ccc(-c3cc(CN4CCOCC4)[nH]n3)cc2)cc1 [MMV676161] | -0.68 | -1.33 |  |
| CCc1nc2ccc(Cl)cn2c1C(=O)NCc1ccc(N2CCC(c3ccc(OC(F)(F)F)cc3)CC2)cc1 [MMV687696, Telacebec, Q203, reference compound] | -1.48 | 7.51 |  |
| CC(C)(C)n1nc(-c2ccccc2)c2c(N)ncnc21 [MMV688548] | -2.51 | 1.17 |  |
| CCc1ccc(S(=O)(=O)Nc2cc(CN3CCN(CCC(C)C)CC3)ccc2C)cc1 [MMV688124] | -0.0233 | -0.17 |  |
| CCOC(=O)NC(=O)c1ccsc1NC(=O)c1nc2ccccc2s1 [MMV090930] | 11.85 | 28.09 | PGI release, % of Tx-100 control, average, 5d [5]: 2.46%; PGI release, % of Tx-100 control, average, 12d [6]: 6.26%; activity in the screen at 10 μM (confirmed in triplicates, >20% relative PGI release): active; PGI release, % of Tx-100 control, average, 5d [1]: 13.69%; PGI release, % of Tx-100 control, average, 12d [2]: 46.13% |
| COc1ccc(-c2nc(-c3cccc(NC(=O)Cc4ccc(F)cc4)c3)no2)cc1OC [MMV676571] | -1.41 | 1.58 |  |
| O=C(c1cc2ccccc2o1)N1CCN(Cc2ccc3c(c2)OCO3)CC1 [MMV676520] | -0.72 | -0.39 |  |
| N#Cc1ccc(-c2cnc(N)c(-c3ccc(C(N)=O)cc3)n2)cc1 [MMV085499] | 7.58 | 0.90 |  |
| CC(C)(C)n1nc(Cc2cccc3ccccc23)c2c(N)ncnc21 [MMV676599] | -0.93 | -0.99 |  |
| CC(C)n1ncc2c(C(=O)NCC(c3cccs3)N3CCOCC3)cc(-c3ccccc3)nc21 (centres unmarked) [MMV676406] | 0.95 | 2.38 |  |

| Structure (SMILES) | PGI release, % of the Tx-100 control, 5d (5 days of incubation) [%] | PGI release, % of the Tx-100 control, 12d (12 days of incubation) [%] | other results |
| --- | --- | --- | --- |
| CC1CCCN(C(=O)C(C)Nc2cc(Cl)ccc2N2CCOCC2)C1 (centres unmarked) [MMV020388] | -0.77 | -1.83 |  |
| Cc1cc(C)cc(COc2ccc3c(C)c(CCC(=O)O)c(=O)oc3c2C)c1 [MMV676476] | 0.11 | 10.97 |  |
| Cc1cccc(NC(=O)c2cc(S(=O)(=O)N(C)c3ccc(F)cc3)ccc2Cl)n1 [MMV676528] | -0.45 | 0.71 |  |
| Cc1ccc2[nH]c(C3CCCNC3)c(-c3ccncc3)c2c1 (centres unmarked) [MMV024311] | -0.16 | -1.97 |  |
| CC(C)NCC(=O)Nc1cccc(C(=O)Nc2cccc(C(F)(F)F)c2)c1 [MMV020165] | 0.28 | -0.10 |  |
| Brc1cncc(-c2cc(NCCCn3ccnc3)nc(-c3ccccc3)n2)c1 [MMV661713] | -3.38 | -0.86 |  |
| COc1ccc(S(=O)(=O)Nc2ccc(CN3CCN(C(=O)c4cccc(C#N)c4)CC3)cc2)cc1 [MMV689029] | 2.51 | -2.23 |  |
| CCn1cnc2c(Nc3cc(F)cc(F)c3)nc(C#N)nc21 [MMV676881] | 0.06 | -0.62 |  |
| CC(C)(C)n1nc(Cc2ccc(F)c(Cl)c2)c2c(N)ncnc21 [MMV688852] | 6.41 | 7.25 |  |
| COc1ccc(Cl)cc1NC(=O)CN(C)C(=O)c1cnn(-c2ccccc2)n1 [MMV020710] | -1.15 | -0.53 |  |
| Cc1ccccc1CN1CCC(O)(c2ccc(Cl)c(C(F)(F)F)c2)CC1 [MMV688846] | 6.92 | 5.57 |  |
| COC(=O)C1=C(C)NC(C)=C(C(=O)OC(C)C)C1c1cccc2nonc12 (centres unmarked) [MMV001493, Isradipine, reference compound] |  |  | cytotoxicity at 10 µM [3]: 0.84%; cytotoxicity at 10 µM [4]: 0.0436% |
| Cc1cc(OCC(=O)NCc2ccccc2)c2cc(Br)ccc2n1 [MMV687747] | -0.47 | 1.30 |  |
| c1ccc(Oc2ccc(-c3cc(N4CCNCC4)[nH]n3)cc2)cc1 [MMV687706] | -0.18 | 0.70 |  |
| COC(=O)c1ccc(F)cc1NS(=O)(=O)c1cccc(-c2cnn(Cc3ccccc3)c2)c1 [MMV688350] | -0.16 | 0.44 |  |
| Cc1cnc(N2CCN[C@@H](Cc3ccccc3)C2)nc1Oc1ccc(-n2ccnc2)cc1 [MMV687765] | 4.75 | 6.17 |  |
| Clc1ccc(Cl)c(CO[C@H]2CCCC[C@@H]2n2ccnc2)c1 [MMV676048] | 1.62 | 0.30 |  |
| CN1CCN(c2cc(-c3ccc(F)cc3)nc(-c3ccncc3)n2)CC1 [MMV688888] | -2.22 | 0.59 |  |
| Cc1ccc(-c2nc(CN(Cc3ccccn3)C(C)C)cs2)o1 [MMV1088520] | -5.44 | -2.75 |  |
| Cc1ncc(-c2ccnc(Nc3ccc(S(C)(=O)=O)cc3)n2)n1C(C)C [MMV676604] | -0.0262 | 0.36 |  |
| COc1cncc(-c2cncc(N3CCN(c4ccncc4)CC3)n2)c1 [MMV085071] | 0.27 | 0.48 |  |
| COc1ccc(C2=NCCN2)cc1-c1cn(-c2cccc(C3=NCCN3)c2)nn1 [MMV688547] | -0.44 | -1.41 |  |
| CC(C)c1ncc(-c2ccncc2)c(C2CCC(CNC(=O)c3cccnc3)CC2)n1 (centres unmarked) [MMV676442] | -0.58 | 4.83 |  |
| O=C(Nc1ccccc1-c1nc2c(C(=O)O)cccc2o1)c1ccccc1 [MMV676162] | 0.15 | 0.13 |  |
| O=C(C1CCN(c2nnc(-n3cccc3)s2)CC1)N1CCC(Cc2ccccc2)CC1 [MMV676478] | -4.04 | 0.80 |  |
